{"source": "patent US20250108037A1", "about": "“COMPOSITION CONTAINING ERGOTHIONEINE FOR SUPPRESSING OR PREVENTING INNER EAR HEARING LOSS” (MITSUBISHI GAS CHEMICAL COMPANY, INC., priority 2021, published 2025)", "system": "C57BL/6J mouse, age-related hearing loss model", "experiment": "ABR (auditory brainstem response) test in age-related hearing loss model mice after oral administration once a day", "format": "in vivo", "details": "given as yeast extract powder", "data": [{"compound": "C[N+](C)(C)[C@@H](Cc1c[nH]c(=S)[nH]1)C(=O)[O-]", "note": "[ergothioneine, Ergothioneine]", "values": [{"measurement": "hearing loss suppression effect", "setting": "Example 2, Tables 5 and 6, 24 and 32 kHz", "value": "confirmed at either frequency, but was particularly remarkable at 24 kHz"}, {"measurement": "progression of hearing loss", "setting": "conclusion from the ABR results", "value": "delayed"}]}]}
